Laboratory results taken from PubChem BioAssay AID608 (Sanford-Burnham Center for Chemical Genomics, 2007).
The source made the active and inactive calls. The rule behind the calls is not given here.

target: Peptidyl-prolyl cis-trans isomerase FKBP1A (Homo sapiens) (UniProt P62942); experiment: FKBP12 binders, biophysical, NMR detection (AID 608); settings: NMR binding, purified FKBP12
Sequence (P62942 whole entry, looked up): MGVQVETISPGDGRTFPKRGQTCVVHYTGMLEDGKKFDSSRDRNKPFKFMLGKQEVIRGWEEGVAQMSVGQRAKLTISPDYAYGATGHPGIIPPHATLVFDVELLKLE

Compound | Kd
COc1ccc(Cl)c(S(=O)(=O)N2CCCC2)c1 | > 4 mM (inactive)
Cc1noc(C)c1C(=O)Nc1ccccn1 | > 4 mM (inactive)
Cc1csc(SCC(=O)N2CCCC2)n1 | > 4 mM (inactive)
Cc1cc(NC(=O)c2ccc3c(c2)OCO3)no1 | > 4 mM (inactive)
CC(C)CCCC(C)[C@H]1CCC2C3CC[C@H]4CC(=O)CC[C@]4(C)C3CC[C@@]21C (some centres undefined) | > 4 mM (inactive)
CCN1CCn2c1nc(N1CCOCC1)nc2=O | > 4 mM (inactive)
O=C1CSC(=Nc2ccc(O)cc2)N1 | > 4 mM (inactive)
O=C1NC(=O)/C(=C\c2ccncc2)S1 | > 4 mM (inactive)
NC(=O)CSc1nnc2ccc3ccccc3n12 | > 4 mM (inactive)
CC(=O)NC(O)C(=O)c1cccs1 (centres undefined) | > 4 mM (inactive)
CNC(=O)CC1Sc2ccccc2NC1=O (centres undefined) | > 4 mM (inactive)
CC(=O)O[C@H]1CC[C@@]2(C)C(CC[C@]3(C)C2C(=O)C=C2C4[C@@H](C)[C@H](C)CC[C@]4(C(=O)O)CC[C@]23C)C1(C)C (some centres undefined) | > 4 mM (inactive)
COc1cc(OC)c(-c2nc3cnccc3n2C)cc1OC | > 4 mM (inactive)
O=C(O)Cc1n[nH]c(=O)c2ccccc12 | > 4 mM (inactive)
O=c1cc(-c2ccc(O)cc2)[nH]c(=S)[nH]1 | > 4 mM (inactive)
COc1cc2ccc(=O)oc2c2ccoc12 | > 4 mM (inactive)
COc1ccc(C(=O)O)cc1OC | > 4 mM (inactive)
CN(C)C(=O)Oc1ccc(-c2nnco2)cc1 | > 4 mM (inactive)
c1ccc(CNc2ncnc3nc[nH]c23)nc1 | > 4 mM (inactive)
Cc1c(/C=N\n2cnnc2)c2ccccc2n1C | > 4 mM (inactive)
Cc1cc(=O)n(CCc2ccccc2)c(O)c1C#N | > 4 mM (inactive)
O=C(O)Cc1noc2ccccc12 | > 4 mM (inactive)
NCC(=O)c1ccccc1 | > 4 mM (inactive)

Compound | Kd
NC(=O)C1CCN(c2nccc(C(F)(F)F)n2)CC1 | > 4 mM (inactive)
O=C1C2C3C=CC(C3)C2C(=O)N1CCCO (centres undefined) | > 4 mM (inactive)
O=C(c1sc2cccc(F)c2c1Cl)N1CCOCC1 | inactive
Cn1cc(Cl)c(C(=O)Nc2ccncc2)n1 | > 4 mM (inactive)
Cc1sc2nc(C)n(NC(N)=O)c(=O)c2c1C | > 4 mM (inactive)
Cc1noc(C)c1C(=O)Nc1sc(C)c(C)c1C#N | > 4 mM (inactive)
COc1ccc2nc(N)sc2n1 | > 4 mM (inactive)
NC(Cc1c[nH]c2ccccc12)C(=O)O (centres undefined) | > 4 mM (inactive)
COc1ccc(-c2cc(=O)c3c(OC)c(OC)c(OC)c(OC)c3o2)cc1 | > 4 mM (inactive)
O=Cc1c(N2CCOCC2)nc2ccccn2c1=O | > 4 mM (inactive)
Cc1occc1C(=O)NCc1ccccc1F | > 4 mM (inactive)
Cc1cc(O)cc(=O)n1CCCC(=O)O | > 4 mM (inactive)
O=C(O)CCS(=O)(=O)c1ccccc1 | > 4 mM (inactive)
Nc1ccc2[nH]ncc2c1 | > 4 mM (inactive)
CC(C)CC(=O)Nc1c[nH]c(=O)[nH]c1=O | > 4 mM (inactive)
Cc1cc(C(=O)N2CCN(c3ccccn3)CC2)c(C)o1 | > 4 mM (inactive)
COc1ccc(C2CC(=O)c3ccc(OC)cc3O2)cc1 (centres undefined) | > 4 mM (inactive)
CN1CCN(CC(O)c2ccccc2)CC1 (centres undefined) | > 4 mM (inactive)
Cc1cc(C)nc(N2CC(=O)N(C)C2=N)n1 | > 4 mM (inactive)
CC(=O)CC1(O)C(=O)Nc2ccc(Br)cc21 (centres undefined) | > 4 mM (inactive)
Cc1c(C)n2c(SCC(N)=O)nnc2[nH]c1=O | > 4 mM (inactive)
S=c1nc(Cc2ccccc2)[nH][nH]1 | > 4 mM (inactive)
O=C(c1ccco1)N1CCN(Cc2cccc(F)c2)CC1 | > 4 mM (inactive)

Compound | Kd
CC(=O)c1ccc(NS(=O)(=O)c2cccc(C)c2)cc1 | > 4 mM (inactive)
Cn1nc(C(=O)N2CCOCC2)c2ccccc2c1=O | > 4 mM (inactive)
NC(=O)NC(=O)Nc1ccc(Cl)cc1 | > 4 mM (inactive)
Cc1nn(CC(=O)Nc2ccccn2)c(=O)c2ccccc12 | > 4 mM (inactive)
Nc1cccnc1Oc1ccc(F)cc1F | > 4 mM (inactive)
O=C(CSc1ccnc(=O)[nH]1)NCc1ccccc1 | > 4 mM (inactive)
O=C(O)c1cncc(-c2cccs2)c1 | > 4 mM (inactive)
Cn1c(=O)c2c(ncn2C)n(C)c1=O | > 4 mM (inactive)
O=C(NCO)c1ccccc1Cl | > 4 mM (inactive)
CC(=O)Nc1ccc(S(=O)(=O)N2CCN=C2C)cc1 | > 4 mM (inactive)
O=C(O)CCCCC1SCC2NC(=O)NC21 (centres undefined) | > 4 mM (inactive)
O=C1COc2ccc(C(=O)c3ccccc3)cc2CN1 | > 4 mM (inactive)
CC(=O)N1CCc2cc(NC(=O)c3ccc(C)cc3)ccc21 | > 4 mM (inactive)
CC1(C)Cc2nc(N3CCOCC3)c(C#N)cc2CO1 | > 4 mM (inactive)
Cc1cc(NC(=O)c2cccc(N3C(=O)CCC3=O)c2)no1 | > 4 mM (inactive)
O=C1CS/C(=N/N=C/c2cccs2)N1 | > 4 mM (inactive)
O=C(O)/C=C(\CC(=O)O)C(=O)O | > 4 mM (inactive)
O=C(NCCCO)c1ccncc1 | > 4 mM (inactive)
Nc1ccccc1C(=O)N1CCNC(=O)C1 | > 4 mM (inactive)
OCC1Cc2ccccc2CN1 (centres undefined) | > 4 mM (inactive)
O=c1[nH]nc(Cc2ccccn2)c2ccccc12 | > 4 mM (inactive)
CC(C)=CC1C(C(=O)O)C1(C)C (centres undefined) | > 4 mM (inactive)
O=C(O)c1ccc(-n2cccn2)cc1 | > 4 mM (inactive)

Compound | Kd
OCc1cc(-c2cccs2)on1 | > 4 mM (inactive)
O=C(Cn1c(-c2cscn2)nc2ccccc21)Nc1ccc(Cl)cc1 | > 4 mM (inactive)
O=C(O)Cc1c[nH]c2ccccc12 | > 4 mM (inactive)
COC(=O)c1ccc(C(=S)N2CCOCC2)cc1 | > 4 mM (inactive)
O=C1C2CC=CCC2C(=O)N1c1cccc(O)c1 (centres undefined) | > 4 mM (inactive)
Cc1ccccc1-n1c(N)cc(=O)[nH]c1=S | > 4 mM (inactive)
CC(=O)Oc1c(-c2ccccc2)oc2c(CC=C(C)C)c3c(c(OC(C)=O)c2c1=O)C=CC(C)(C)O3 | > 4 mM (inactive)
C[n+]1ccn(C/C(N)=N/O)c1 | > 4 mM (inactive)
C[C@@H]1CC[C@@]23CCC4(C)[C@@](C=CC5[C@@]6(C)CCC(=O)C(C)(C)C6CC[C@]54C)(OC2=O)C3[C@H]1C (some centres undefined) | > 4 mM (inactive)
O=c1nc(N2CCCCC2)nc2n1CCO2 | > 4 mM (inactive)
Cc1nccc2c1[nH]c1ccccc12 | > 4 mM (inactive)
Cc1nnc(N2CCN(Cc3ccccc3)CC2)[nH]c1=O | > 4 mM (inactive)
CN(C)Cc1nc2c([nH]1)c(=O)[nH]c(=O)n2C | > 4 mM (inactive)
Cc1ccc(Nc2nc(N)nc(CC#N)n2)cc1 | > 4 mM (inactive)
O=C(c1sc2cc([N+](=O)[O-])ccc2c1Cl)N1CCOCC1 | inactive
NCc1nc2ccccc2s1 | > 4 mM (inactive)
Cc1cccc(C)c1NC(=O)/C=C/C(=O)O | > 4 mM (inactive)
Cn1cnnc1SCC(=O)Nc1nccs1 | > 4 mM (inactive)
Cc1cc(C)n2nc(-c3cccnc3)nc2n1 | > 4 mM (inactive)
O=C(O)C1CNc2ccccc2O1 (centres undefined) | > 4 mM (inactive)
